The test system of the assay is 29 types of breast cancer cell lines. Put plainly: Measurement of IC50 of doxorubicin, Celltiter Glo Luminescent Cell Viability Assay. Type of assay: cell-based. As to conditions: median over 29 human breast cancer cell lines; doxorubicin 0-2000 nM; growth measured 72 hours after culture-medium exchange; used as threshold sensitive/nonsensitive. Here is the method:
29 types of breast cancer cell lines shown in Reference example 1 were inoculated into wells on two sheets of microplates at 5000 cells/100 uL/well using culture media containing doxorubicin at 0 nM, 250 nM, 500 nM, 750 nM, 1000 nM, and 2000 nM concentrations, followed by culturing for 24 hours.
Culture media containing doxorubicin at respective concentrations were prepared and the culture medium exchange was performed. Immediately after the culture-medium exchange, the growth of the cells on one of the microplates was measured using Celltiter Glo Luminescent Cell Viavility Assay (Cat#G7571: manufactured by Promega KK.). The remaining microplate was cultured under the culture conditions shown in Reference example 1 for 72 hours after the culture-medium exchange. Thereafter, the growth of the cells was measured using Celltiter Glo Luminescent Cell Viavility Assay (Cat#G7571: manufactured by Promega KK.).
On the basis of the number of the living cells measured, the concentration (IC50) of doxorubicin (the number of […]×100=50) was determined.
(In ATP-based viability assays light output follows the ATP content of the culture.)

For 1 compound, IC50 results are on record in patent US20110244497A1, “METHOD FOR JUDGING SUSCEPTIBILITY OF CANCER CELLS TO ANTHRACYCLINE ANTICANCER AGENT AND COMPUTER PROGRAM” (SYSMEX CORPORATION, priority 2010, published 2011).

Structures are written as SMILES.

`COc1cccc2c1C(=O)c1c(O)c3c(c(O)c1C2=O)C[C@@](O)(C(=O)CO)C[C@@H]3O[C@H]1C[C@H](N)[C@H](O)[C@H](C)O1` [doxorubicin]: the 50% inhibitory concentration (IC50) turned out to be 392 nM. That is a sub-micromolar value.

As usually defined, the IC50 is the concentration that gives 50% inhibition. A higher IC50 goes with a need for much substance.
